# ChEMBL document CHEMBL4507317, “Data for DCP probe BAY-899” (2021)
# Columns and labels:
# [1] = molecular target: Follicle-stimulating hormone receptor (Homo sapiens, UniProt P23945); assay: Cell-based assay (FSH Antagonism)
# [2] = tested on: Tyrosine-protein kinase ABL1 (Homo sapiens), P00519 [E255K]; settings: Compound concentration 1000.0 nM
# [3] = tested on: Tyrosine-protein kinase ABL1 (Homo sapiens), P00519 [H396P]; settings: Compound concentration 1000.0 nM
# [4] = tested on: Tyrosine-protein kinase ABL1 (Homo sapiens), P00519 [T315I]; settings: Compound concentration 1000.0 nM
# [5] = molecular target: Activin receptor type-2B (Homo sapiens) (UniProt Q13705); settings: Compound concentration 1000.0 nM
# Sequence of Activin receptor type-2B (Homo sapiens) (Q13705 whole entry): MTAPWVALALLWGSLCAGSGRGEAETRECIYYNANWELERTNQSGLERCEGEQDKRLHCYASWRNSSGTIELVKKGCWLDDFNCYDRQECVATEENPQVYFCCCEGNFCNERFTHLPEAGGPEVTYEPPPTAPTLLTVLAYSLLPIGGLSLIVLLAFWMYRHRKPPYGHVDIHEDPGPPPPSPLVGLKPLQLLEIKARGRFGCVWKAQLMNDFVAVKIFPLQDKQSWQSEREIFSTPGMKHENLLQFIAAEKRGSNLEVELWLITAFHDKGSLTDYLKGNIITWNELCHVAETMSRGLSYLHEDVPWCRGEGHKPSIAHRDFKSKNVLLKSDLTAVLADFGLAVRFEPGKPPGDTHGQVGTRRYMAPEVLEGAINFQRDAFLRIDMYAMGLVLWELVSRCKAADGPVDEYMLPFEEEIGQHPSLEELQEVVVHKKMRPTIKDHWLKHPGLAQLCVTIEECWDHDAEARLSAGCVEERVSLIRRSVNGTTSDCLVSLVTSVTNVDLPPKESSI
# [6] = molecular target: RAC-alpha serine/threonine-protein kinase (Homo sapiens) (UniProt P31749); settings: Compound concentration 1000.0 nM
# [7] = molecular target: Cytoplasmic tyrosine-protein kinase BMX (Homo sapiens) (UniProt P51813); settings: Compound concentration 1000.0 nM
# [8] = molecular target: Serine/threonine-protein kinase Chk1 (Homo sapiens) (UniProt O14757); settings: Compound concentration 1000.0 nM
# [9] = tested on: Epidermal growth factor receptor (Homo sapiens), P00533 [G719S]; settings: Compound concentration 1000.0 nM
# [10] = tested on: Epidermal growth factor receptor (Homo sapiens), P00533 [UNDEFINED MUTATION]; settings: Compound concentration 1000.0 nM
# [11] = molecular target: Ephrin type-A receptor 1 (Homo sapiens) (UniProt P21709); settings: Compound concentration 1000.0 nM
# [12] = molecular target: Ephrin type-B receptor 1 (Homo sapiens) (UniProt P54762); settings: Compound concentration 1000.0 nM
# [13] = molecular target: Ephrin type-B receptor 4 (Homo sapiens) (UniProt P54760); settings: Compound concentration 1000.0 nM
# [14] = molecular target: Beta-adrenergic receptor kinase 1 (Homo sapiens) (UniProt P25098); settings: Compound concentration 1000.0 nM
# [15] = molecular target: Glycogen synthase kinase-3 alpha (Homo sapiens) (UniProt P49840); settings: Compound concentration 1000.0 nM
# [16] = molecular target: Mitogen-activated protein kinase kinase kinase kinase 1 (Homo sapiens) (UniProt Q92918); settings: Compound concentration 1000.0 nM
# [17] = molecular target: Serine/threonine-protein kinase ICK (Homo sapiens) (UniProt Q9UPZ9); settings: Compound concentration 1000.0 nM
# [18] = molecular target: Insulin receptor-related protein (Homo sapiens) (UniProt P14616); settings: Compound concentration 1000.0 nM
# [19] = molecular target: Interleukin-1 receptor-associated kinase 4 (Homo sapiens) (UniProt Q9NWZ3); settings: Compound concentration 1000.0 nM
# [20] = molecular target: Mitogen-activated protein kinase 10 (Homo sapiens) (UniProt P53779); settings: Compound concentration 1000.0 nM
# Sequence of Mitogen-activated protein kinase 10 (Homo sapiens) (P53779 whole entry): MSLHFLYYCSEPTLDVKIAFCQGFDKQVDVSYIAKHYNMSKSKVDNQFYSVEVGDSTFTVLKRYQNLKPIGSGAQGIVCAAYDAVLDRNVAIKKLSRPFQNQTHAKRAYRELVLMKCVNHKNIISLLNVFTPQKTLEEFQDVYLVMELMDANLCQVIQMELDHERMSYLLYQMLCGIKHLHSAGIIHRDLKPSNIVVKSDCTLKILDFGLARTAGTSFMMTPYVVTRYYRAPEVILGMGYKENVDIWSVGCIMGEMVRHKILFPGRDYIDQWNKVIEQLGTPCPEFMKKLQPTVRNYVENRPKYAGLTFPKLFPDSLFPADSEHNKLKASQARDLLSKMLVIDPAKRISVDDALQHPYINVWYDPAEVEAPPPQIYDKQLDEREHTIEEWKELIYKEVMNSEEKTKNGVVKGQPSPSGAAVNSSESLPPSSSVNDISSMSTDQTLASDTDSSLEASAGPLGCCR
# [21] = tested on: Mast/stem cell growth factor receptor Kit (Homo sapiens), P10721 [D816V]; settings: Compound concentration 1000.0 nM
# [22] = molecular target: Mitogen-activated protein kinase kinase kinase kinase 5 (Homo sapiens) (UniProt Q9Y4K4); settings: Compound concentration 1000.0 nM
# [23] = molecular target: Serine/threonine-protein kinase MARK2 (Homo sapiens) (UniProt Q7KZI7); settings: Compound concentration 1000.0 nM
# [24] = molecular target: MAP/microtubule affinity-regulating kinase 3 (Homo sapiens) (UniProt P27448); settings: Compound concentration 1000.0 nM
# [25] = molecular target: Dual specificity mitogen-activated protein kinase kinase 6 (Homo sapiens) (UniProt P52564); settings: Compound concentration 1000.0 nM
# [26] = tested on: Hepatocyte growth factor receptor (Homo sapiens), P08581 [Y1235D]; settings: Compound concentration 1000.0 nM
# [27] = molecular target: Serine/threonine-protein kinase MRCK alpha (Homo sapiens) (UniProt Q5VT25); settings: Compound concentration 1000.0 nM
# [28] = molecular target: Myosin-IIIb (Homo sapiens) (UniProt Q8WXR4); settings: Compound concentration 1000.0 nM
# [29] = molecular target: Serine/threonine-protein kinase Nek10 (Homo sapiens) (UniProt Q6ZWH5); settings: Compound concentration 1000.0 nM
# [30] = molecular target: Serine/threonine-protein kinase PAK 3 (Homo sapiens) (UniProt O75914); settings: Compound concentration 1000.0 nM
# [31] = molecular target: Phosphatidylinositol 3-kinase C2 domain-containing subunit gamma (Homo sapiens) (UniProt O75747); settings: Compound concentration 1000.0 nM
# [32] = molecular target: Serine/threonine-protein kinase pim-2 (Homo sapiens) (UniProt Q9P1W9); settings: Compound concentration 1000.0 nM
# Sequence of Serine/threonine-protein kinase pim-2 (Homo sapiens) (Q9P1W9 whole entry, looked up): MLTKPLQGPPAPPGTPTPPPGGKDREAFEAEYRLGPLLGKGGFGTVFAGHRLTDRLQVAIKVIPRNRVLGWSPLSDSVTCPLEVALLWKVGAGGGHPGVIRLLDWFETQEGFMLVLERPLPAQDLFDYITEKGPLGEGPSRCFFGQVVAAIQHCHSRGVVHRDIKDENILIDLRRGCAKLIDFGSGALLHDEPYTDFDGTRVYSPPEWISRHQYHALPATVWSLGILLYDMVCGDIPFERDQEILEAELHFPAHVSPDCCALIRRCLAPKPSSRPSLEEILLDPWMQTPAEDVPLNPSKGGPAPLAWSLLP
# [33] = molecular target: Serine/threonine-protein kinase N1 (Homo sapiens) (UniProt Q16512); settings: Compound concentration 1000.0 nM
# [34] = molecular target: Serine/threonine-protein kinase D1 (Homo sapiens) (UniProt Q15139); settings: Compound concentration 1000.0 nM
# [35] = molecular target: cAMP-dependent protein kinase catalytic subunit PRKX (Homo sapiens) (UniProt P51817); settings: Compound concentration 1000.0 nM
# [36] = molecular target: Protein-tyrosine kinase 2-beta (Homo sapiens) (UniProt Q14289); settings: Compound concentration 1000.0 nM
# Sequence of Protein-tyrosine kinase 2-beta (Homo sapiens) (Q14289 whole entry, looked up): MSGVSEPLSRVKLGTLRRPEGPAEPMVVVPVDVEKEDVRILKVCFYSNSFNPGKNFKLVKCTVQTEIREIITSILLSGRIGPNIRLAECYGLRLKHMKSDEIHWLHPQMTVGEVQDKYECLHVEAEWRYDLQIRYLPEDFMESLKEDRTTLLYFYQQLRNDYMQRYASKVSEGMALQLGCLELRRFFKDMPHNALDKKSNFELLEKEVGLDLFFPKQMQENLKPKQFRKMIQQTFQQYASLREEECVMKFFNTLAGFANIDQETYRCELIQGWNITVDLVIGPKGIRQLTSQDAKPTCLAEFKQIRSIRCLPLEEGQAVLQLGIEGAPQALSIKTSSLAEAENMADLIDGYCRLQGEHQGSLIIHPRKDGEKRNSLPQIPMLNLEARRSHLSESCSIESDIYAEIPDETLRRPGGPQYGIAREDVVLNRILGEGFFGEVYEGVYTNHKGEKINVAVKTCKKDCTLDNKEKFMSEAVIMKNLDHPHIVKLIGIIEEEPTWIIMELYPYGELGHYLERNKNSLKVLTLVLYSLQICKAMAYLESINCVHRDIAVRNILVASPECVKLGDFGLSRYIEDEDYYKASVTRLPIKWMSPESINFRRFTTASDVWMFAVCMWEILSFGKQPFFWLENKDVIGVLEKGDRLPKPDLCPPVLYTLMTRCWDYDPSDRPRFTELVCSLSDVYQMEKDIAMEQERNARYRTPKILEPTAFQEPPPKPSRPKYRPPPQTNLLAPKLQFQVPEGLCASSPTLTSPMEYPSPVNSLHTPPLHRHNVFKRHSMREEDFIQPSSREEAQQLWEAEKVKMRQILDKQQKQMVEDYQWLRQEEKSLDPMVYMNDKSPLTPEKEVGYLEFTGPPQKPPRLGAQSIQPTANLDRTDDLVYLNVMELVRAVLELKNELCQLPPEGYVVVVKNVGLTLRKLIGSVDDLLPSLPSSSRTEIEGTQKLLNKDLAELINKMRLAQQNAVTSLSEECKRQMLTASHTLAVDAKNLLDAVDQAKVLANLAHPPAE
# [37] = molecular target: Serine/threonine-protein kinase RIO2 (Homo sapiens) (UniProt Q9BVS4); settings: Compound concentration 1000.0 nM
# [38] = molecular target: Ribosomal protein S6 kinase alpha-1 (Homo sapiens) (UniProt Q15418); settings: Compound concentration 1000.0 nM
# Sequence of Ribosomal protein S6 kinase alpha-1 (Homo sapiens) (Q15418 whole entry): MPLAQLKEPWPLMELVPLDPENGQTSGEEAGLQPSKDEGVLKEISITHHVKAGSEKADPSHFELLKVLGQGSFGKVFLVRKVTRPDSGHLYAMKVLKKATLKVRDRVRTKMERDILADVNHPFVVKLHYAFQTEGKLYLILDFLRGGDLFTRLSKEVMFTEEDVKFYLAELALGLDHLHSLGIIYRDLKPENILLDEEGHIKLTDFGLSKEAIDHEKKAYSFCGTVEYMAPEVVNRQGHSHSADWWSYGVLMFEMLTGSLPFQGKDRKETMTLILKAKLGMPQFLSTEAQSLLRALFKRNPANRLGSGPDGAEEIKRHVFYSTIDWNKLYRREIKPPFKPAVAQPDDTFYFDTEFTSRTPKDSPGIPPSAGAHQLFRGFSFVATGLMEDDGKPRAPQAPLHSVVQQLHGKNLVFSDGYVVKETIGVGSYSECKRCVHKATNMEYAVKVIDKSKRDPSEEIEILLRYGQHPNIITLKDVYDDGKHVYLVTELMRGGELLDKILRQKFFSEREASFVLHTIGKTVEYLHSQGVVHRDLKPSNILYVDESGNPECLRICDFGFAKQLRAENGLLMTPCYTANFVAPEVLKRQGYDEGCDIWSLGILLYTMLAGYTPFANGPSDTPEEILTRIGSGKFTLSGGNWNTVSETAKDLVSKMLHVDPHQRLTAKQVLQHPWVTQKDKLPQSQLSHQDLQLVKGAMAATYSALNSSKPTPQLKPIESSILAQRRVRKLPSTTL
# [39] = molecular target: Ribosomal protein S6 kinase alpha-6 (Homo sapiens) (UniProt Q9UK32); settings: Compound concentration 1000.0 nM
# [40] = molecular target: Uncharacterized serine/threonine-protein kinase SBK3 (Homo sapiens) (UniProt P0C264); settings: Compound concentration 1000.0 nM
# Sequence of Uncharacterized serine/threonine-protein kinase SBK3 (Homo sapiens) (P0C264 whole entry): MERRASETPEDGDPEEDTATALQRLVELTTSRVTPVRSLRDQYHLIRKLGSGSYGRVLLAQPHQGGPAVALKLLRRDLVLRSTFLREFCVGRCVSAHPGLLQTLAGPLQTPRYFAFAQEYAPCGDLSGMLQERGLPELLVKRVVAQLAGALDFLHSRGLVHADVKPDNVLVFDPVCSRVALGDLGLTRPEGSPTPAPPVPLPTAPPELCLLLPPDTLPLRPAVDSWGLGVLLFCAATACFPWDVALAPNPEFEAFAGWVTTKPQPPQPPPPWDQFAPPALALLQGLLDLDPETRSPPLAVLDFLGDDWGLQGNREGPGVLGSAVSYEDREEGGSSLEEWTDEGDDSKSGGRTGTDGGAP
# [41] = molecular target: Serine/threonine-protein kinase 16 (Homo sapiens) (UniProt O75716); settings: Compound concentration 1000.0 nM
# Sequence of Serine/threonine-protein kinase 16 (Homo sapiens) (O75716 whole entry): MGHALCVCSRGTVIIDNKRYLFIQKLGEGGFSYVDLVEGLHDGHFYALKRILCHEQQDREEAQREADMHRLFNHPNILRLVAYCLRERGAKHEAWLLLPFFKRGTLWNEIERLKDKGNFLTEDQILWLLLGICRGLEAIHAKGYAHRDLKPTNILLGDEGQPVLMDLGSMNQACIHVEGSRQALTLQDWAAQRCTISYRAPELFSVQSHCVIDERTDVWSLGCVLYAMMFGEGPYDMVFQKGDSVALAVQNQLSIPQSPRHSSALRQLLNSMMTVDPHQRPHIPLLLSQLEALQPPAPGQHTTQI
# [42] = molecular target: Non-receptor tyrosine-protein kinase TYK2 (Homo sapiens) (UniProt P29597); settings: Compound concentration 1000.0 nM
# Sequence of Non-receptor tyrosine-protein kinase TYK2 (Homo sapiens) (P29597 whole entry): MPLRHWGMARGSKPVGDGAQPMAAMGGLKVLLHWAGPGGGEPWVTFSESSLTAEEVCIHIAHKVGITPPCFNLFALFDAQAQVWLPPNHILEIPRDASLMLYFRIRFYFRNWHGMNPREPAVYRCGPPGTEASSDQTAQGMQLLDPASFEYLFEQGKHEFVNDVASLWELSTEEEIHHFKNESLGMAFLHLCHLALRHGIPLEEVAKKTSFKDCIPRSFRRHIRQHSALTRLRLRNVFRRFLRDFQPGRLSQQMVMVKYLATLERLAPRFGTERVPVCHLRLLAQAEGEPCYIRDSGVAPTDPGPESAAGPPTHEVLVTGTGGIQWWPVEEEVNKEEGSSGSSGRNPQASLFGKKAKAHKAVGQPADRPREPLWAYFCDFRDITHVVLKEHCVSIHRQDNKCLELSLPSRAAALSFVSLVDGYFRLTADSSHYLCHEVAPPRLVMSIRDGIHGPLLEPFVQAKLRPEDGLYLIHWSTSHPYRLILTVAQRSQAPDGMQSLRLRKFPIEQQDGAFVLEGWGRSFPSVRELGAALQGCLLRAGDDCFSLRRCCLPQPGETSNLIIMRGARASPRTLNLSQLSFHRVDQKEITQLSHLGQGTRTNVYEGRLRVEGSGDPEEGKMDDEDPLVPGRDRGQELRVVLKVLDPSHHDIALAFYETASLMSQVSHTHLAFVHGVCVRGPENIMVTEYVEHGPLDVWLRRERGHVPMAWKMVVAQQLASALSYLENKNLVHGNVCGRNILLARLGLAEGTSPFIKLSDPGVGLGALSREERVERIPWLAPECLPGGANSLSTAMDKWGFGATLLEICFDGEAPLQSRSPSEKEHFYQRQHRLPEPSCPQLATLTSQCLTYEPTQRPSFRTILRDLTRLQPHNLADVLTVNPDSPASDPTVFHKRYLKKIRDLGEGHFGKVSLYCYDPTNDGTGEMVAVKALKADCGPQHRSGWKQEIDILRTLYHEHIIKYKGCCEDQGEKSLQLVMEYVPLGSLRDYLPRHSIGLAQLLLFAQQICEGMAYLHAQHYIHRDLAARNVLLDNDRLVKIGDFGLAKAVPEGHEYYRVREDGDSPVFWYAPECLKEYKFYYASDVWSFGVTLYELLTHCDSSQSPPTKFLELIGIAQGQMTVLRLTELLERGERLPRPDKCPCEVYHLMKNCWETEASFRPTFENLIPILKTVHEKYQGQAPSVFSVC
# [43] = molecular target: Serine/threonine-protein kinase WNK2 (Homo sapiens) (UniProt Q9Y3S1); settings: Compound concentration 1000.0 nM
# [44] = molecular target: Sodium-dependent noradrenaline transporter (Homo sapiens) (UniProt P23975); settings: Compound concentration 10.0 uM
# [45] = molecular target: Alpha-1B adrenergic receptor (Homo sapiens) (UniProt P35368); settings: Compound concentration 10.0 uM
structure (smiles),measurement,setting,value
O=C(Nc1ccc(Oc2ccc(F)cc2)cc1)N1CCc2ncccc2[C@H]1c1ccc(F)cc1 [BAY-897],IC50,[1],> 16 µM (not active)
same,residual activity,[2],100%
same,residual activity,[3],98%
same,residual activity,[4],85%
same,residual activity,[5],100%
same,residual activity,[6],95%
same,residual activity,[7],100%
same,residual activity,[8],100%
same,residual activity,[9],74%
same,residual activity,[10],92%
same,residual activity,[11],100%
same,residual activity,[12],100%
same,residual activity,[13],100%
same,residual activity,[14],92%
same,residual activity,[15],95%
same,residual activity,[16],100%
same,residual activity,[17],76%
same,residual activity,[18],94%
same,residual activity,[19],96%
same,residual activity,[20],82%
same,residual activity,[21],100%
same,residual activity,[22],91%
same,residual activity,[23],82%
same,residual activity,[24],100%
same,residual activity,[25],100%
same,residual activity,[26],86%
same,residual activity,[27],94%
same,residual activity,[28],83%
same,residual activity,[29],100%
same,residual activity,[30],100%
same,residual activity,[31],100%
same,residual activity,[32],93%
same,residual activity,[33],100%
same,residual activity,[34],94%
same,residual activity,[35],88%
same,residual activity,[36],89%
same,residual activity,[37],94%
same,residual activity,[38],79%
same,residual activity,[39],95%
same,residual activity,[40],70%
same,residual activity,[41],100%
same,residual activity,[42],100%
same,residual activity,[43],88%
same,inhibition,[44],32.5%
same,inhibition,[45],12.2%
O=C(Nc1cnc(Oc2ccc(F)cc2)nc1)N1CCc2ncccc2[C@@H]1c1ccc(F)cc1 [BAY-899],IC50,[1],> 16 µM (not active)
same,residual activity,[2],100%
same,residual activity,[3],97%
same,residual activity,[4],77%
same,residual activity,[5],85%
same,residual activity,[6],100%
same,residual activity,[7],94%
same,residual activity,[8],84%
same,residual activity,[9],72%
same,residual activity,[10],86%
same,residual activity,[11],100%
same,residual activity,[12],83%
same,residual activity,[13],100%
same,residual activity,[14],90%
same,residual activity,[15],93%
same,residual activity,[16],100%
same,residual activity,[17],92%
same,residual activity,[18],84%
same,residual activity,[19],95%
same,residual activity,[20],88%
same,residual activity,[21],98%
same,residual activity,[22],77%
same,residual activity,[23],90%
same,residual activity,[24],100%
same,residual activity,[25],77%
same,residual activity,[26],93%
same,residual activity,[27],96%
same,residual activity,[28],100%
same,residual activity,[29],100%
same,residual activity,[30],100%
same,residual activity,[31],97%
same,residual activity,[32],94%
same,residual activity,[33],95%
same,residual activity,[34],100%
same,residual activity,[35],93%
same,residual activity,[36],100%
same,residual activity,[37],96%
same,residual activity,[38],71%
same,residual activity,[39],82%
same,residual activity,[40],90%
same,residual activity,[41],100%
same,residual activity,[42],100%
same,residual activity,[43],79%
same,inhibition,[44],10.2%
same,inhibition,[45],-4.4%
